Data from patent publication US20120225909A1, “INDAZOLE ANALOG” (priority 2009, published 2012).

Legend:
Type in all cases: cell-based
[1] = target: T1, human β3-adrenergic receptor (Homo sapiens, UniProt P13945); assay: Test Case 1-B: human β3-adrenergic receptor agonist activity (cAMP-Screen, 96-well); conditions: for Emax: 0.5 h, read-out: β3 receptor I.A.; for EC50 / β3 receptor I.A.: Test Case 1-B; for EC50: CHO cells, cAMP; for β3 receptor I.A.: maximum response of isoproterenol = 100%
T1 construct: A full-length human β3 gene is obtained from a human genomic library (made by Clontech) using this as the probe; expressed in transfected cells; host or cells: CHO (Chinese hamster ovary) cells, pcDNA3
Procedure, shortened: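 CHO cells stably transfected with full-length human β3 gene, serum-starved 15 min, then exposed to serially diluted compound in Ham's F-12 with 100 mmol/L HEPES and 1 mmol/L IBMX (diluent concentrations) for 30 min. Cells lysed 30 min at 37 °C; cAMP quantified by cAMP-Screen immunoassay.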

[2] = target: T2, human β1-adrenergic receptor (Homo sapiens, UniProt P08588); assay: Test Case 2-C: human β1-adrenergic receptor agonist activity (Cerep cellular functional GPCR, beta 1); conditions: concentration 10 μM, isoproterenol = 100%
T2 construct: expressed in transfected cells; host or cells: CHO (Chinese hamster ovary) cells, pcDNA3
Description: Measurement of Human β1-Adrenergic Receptor Agonist Activity

[3] = target: T3, human β2-adrenergic receptor (Homo sapiens, UniProt P07550); assay: Test Case 3-C: human β2-adrenergic receptor agonist activity (Cerep cellular functional GPCR, beta 2); conditions: concentration 10 μM, isoproterenol = 100%
T3 construct: expressed in transfected cells; host or cells: CHO (Chinese hamster ovary) cells, pcDNA3
Description: Measurement of Human β2-Adrenergic Receptor Agonist Activity

[4] = target: T4, human α1A-adrenergic receptor (Homo sapiens, UniProt P35348); assay: Test Case 4-B: human α1A-adrenergic receptor agonist activity (Cerep cellular functional GPCR, alpha 1A); design: expressed in transfected cells; conditions: concentration 10 μM; for α1 receptor % of Control Agonist Response, Control; Epinephrine: epinephrine = 100%; for α1 receptor % of Control Agonist Response, Control; Norepinephrine: norepinephrine = 100%
T4 sequence (P35348 1-466): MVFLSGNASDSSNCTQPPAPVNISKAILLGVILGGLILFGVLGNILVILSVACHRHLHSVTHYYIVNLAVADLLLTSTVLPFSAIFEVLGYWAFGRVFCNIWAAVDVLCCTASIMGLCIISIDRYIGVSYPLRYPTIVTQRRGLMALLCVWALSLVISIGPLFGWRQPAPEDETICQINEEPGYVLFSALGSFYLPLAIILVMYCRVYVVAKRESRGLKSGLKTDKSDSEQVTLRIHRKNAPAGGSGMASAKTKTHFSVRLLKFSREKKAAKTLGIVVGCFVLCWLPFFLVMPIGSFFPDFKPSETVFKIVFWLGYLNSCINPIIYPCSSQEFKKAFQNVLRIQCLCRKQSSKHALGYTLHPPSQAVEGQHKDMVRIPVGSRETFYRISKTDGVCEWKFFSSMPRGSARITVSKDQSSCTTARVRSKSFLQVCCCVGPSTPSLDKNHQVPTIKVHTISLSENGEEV
Description: Measurement of Human α1A-Adrenergic Receptor Agonist Activity
The human α1A-adrenergic receptor agonist activity] can be measured by […] Functional GPCR·Gs, alpha 1A (Ref. 722-36a) listed on p. 52 of the Cerep 2008 CATALOG IN VITRO PHARMACOLOGY & ADME-TOX.

[5] = target: T4, human α1A-adrenergic receptor; assay: Test Case 4-A: human α1A-adrenergic receptor agonist activity (HEK293, Ca flux, Fura-2); design: expressed in transfected cells; host or cells: HEK293 cells, pcDNA3.1; conditions: for Emax: HEK293, read-out: α1A receptor I.A.
Procedure, shortened: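 Fura-2AM-loaded HEK293 cells transfected with human α1A were preincubated for 180 s. Compound (sample plate 10^−5 to 10^−12 M) was added after ~30 s of 340/380 nm excitation ratio reading (500 nm emission, 2-s intervals), followed by 270 s more reading. Ca flux is the peak height: maximum ratio after addition minus the pre-addition ratio.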

T1 sequence (P13945 whole entry): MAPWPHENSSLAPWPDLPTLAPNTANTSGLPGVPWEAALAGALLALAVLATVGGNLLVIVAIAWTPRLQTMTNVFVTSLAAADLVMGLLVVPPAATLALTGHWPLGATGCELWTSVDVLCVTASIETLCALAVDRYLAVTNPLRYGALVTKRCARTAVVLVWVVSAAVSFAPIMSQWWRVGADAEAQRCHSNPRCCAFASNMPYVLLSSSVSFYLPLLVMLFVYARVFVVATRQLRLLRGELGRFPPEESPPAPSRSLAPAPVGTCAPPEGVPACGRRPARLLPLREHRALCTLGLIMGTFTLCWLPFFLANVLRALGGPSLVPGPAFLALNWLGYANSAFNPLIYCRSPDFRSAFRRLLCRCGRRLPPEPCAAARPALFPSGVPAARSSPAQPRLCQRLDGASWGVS
T2 sequence (P08588 whole entry): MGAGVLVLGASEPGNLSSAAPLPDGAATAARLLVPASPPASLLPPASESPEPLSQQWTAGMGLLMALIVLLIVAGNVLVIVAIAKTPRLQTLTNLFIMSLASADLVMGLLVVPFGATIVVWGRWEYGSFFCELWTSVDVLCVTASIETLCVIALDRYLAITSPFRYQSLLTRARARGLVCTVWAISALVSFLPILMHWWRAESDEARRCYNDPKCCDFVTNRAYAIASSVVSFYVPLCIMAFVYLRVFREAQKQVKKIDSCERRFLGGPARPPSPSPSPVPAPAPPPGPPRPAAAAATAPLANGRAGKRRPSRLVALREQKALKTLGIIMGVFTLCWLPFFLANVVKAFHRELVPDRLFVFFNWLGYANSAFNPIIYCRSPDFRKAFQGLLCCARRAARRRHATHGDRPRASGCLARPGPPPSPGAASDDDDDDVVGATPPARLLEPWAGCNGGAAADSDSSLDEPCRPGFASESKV

Row | Emax [1] [%] | EC50 [1] [nM] | β1 receptor % of Control Agonist Response [2] [%] | Emax [5] [%] | β2 receptor % of Control Agonist Response ([3]; 10 µM) [%] | α1 receptor % of Control Agonist Response, Control; Epinephrine ([4]; 10 µM) [%] | α1 receptor % of Control Agonist Response, Control; Norepinephrine ([4]; 10 µM) [%] | Compound | β2 receptor % of Control Agonist Response [3] [%] | α1 receptor % of Control Agonist Response, Control; Epinephrine [4] [%] | α1 receptor % of Control Agonist Response, Control; Norepinephrine [4] [%] | β3 receptor I.A. [1] [%] | α1A receptor I.A. ([5]; Test Case 4-A, maximum response of norepinephrine = 100%, Table 4) [%]
1 | 75 | 101 | 8.7 | 1 | – | – | – | O=S(=O)(Nc1cccc([C@@H](O)CNCCOc2ccc3c(OC(F)F)n[nH]c3c2)c1)c1ccccc1F [ex107, (R)-N-(3-(2-(2-(3-(difluoromethoxy)-indazol-6-yloxy)ethylamino)-1-hydroxyethyl)phenyl)-2-fluorobenzene-sulfonamide] | −0.6 | 17 | 14 | – | –
2 | 92 | 8.3 | 19 | 1 | – | – | – | Cc1n[nH]c2cc(OCCNC[C@H](O)c3cccc(NS(=O)(=O)c4cc(F)ccc4F)c3)ccc12 [ex72, (R)-2, ? -difluoro-N-(3-(1-hydroxy-2-(2-(3-methylindazol-6-yloxy)ethylamino)ethyl)phenyl) benzenesulfonamide] | 1.8 | 6.8 | 5.9 | – | –
3 | 90 | 62 | 17 | 0 | – | – | – | O=S(=O)(Nc1cccc([C@@H](O)CNCCOc2ccc3c(Cl)n[nH]c3c2)c1)c1ccccc1F [ex158, (R)-N-(3-(2-(2-(3-chloroindazol-6-yloxy)ethylamino)-1-hydroxyethyl)phenyl)-2-fluorobenzene-sulfonamide] | 1.6 | 7.8 | 6.7 | – | –
4 | – | – | 6.4 | – | – | – | – | O=S(=O)(Nc1cccc([C@@H](O)CNCCOc2ccc3c(Cl)n[nH]c3c2)c1)c1cn[nH]c1 [ex167, (R)-N-(3-(2-(2-(3-chloroindazol-6-yloxy)ethylamino)-1-hydroxyethyl)phenyl)pyrazole-4-sulfonamide] | 0.3 | 26 | 22 | – | –
5 | – | – | 23 | – | – | – | – | Nc1cccc(S(=O)(=O)Nc2cccc([C@@H](O)CNCCOc3ccc4c(C5CC5)n[nH]c4c3)c2)c1F [ex215, (R)-3-amino-N-(3-(2-(2-(3-cyclopropyl-indazol-6-yloxy)ethyl-amino)-1-hydroxy-ethyl)phenyl)-2-fluorobenzene-sulfonamide] | 0.5 | 0.1 | 0.1 | – | –
6 | 41 | – | 6.1 | – | – | – | – | COc1n[nH]c2cc(OCCNC[C@H](O)c3cccc(NS(=O)(=O)c4cccnc4F)c3)ccc12 [ex24, (R)-2-fluoro-N-(3-(1-hydroxy-2-(2-(3-methoxyindazol-6-yloxy)ethylamino)ethyl)phenyl)pyridine-3-sulfonamide] | 1.2 | 5.6 | 4.8 | – | –
7 | – | – | 12 | – | 3.5 | 3.9 | 3.4 | O=S(=O)(Nc1cccc([C@@H](O)CNCCOc2ccc3c(Cl)n[nH]c3c2)c1)c1cccnc1 [ex156, (R)-N-(3-(2-(2-(3-chloroindazol-6-yloxy)ethylamino)-1-hydroxyethyl)phenyl)pyridine-3-sulfonamide] | – | – | – | – | –

More lines, now with the values behind:

Row | Compound | Emax [1] [%] | EC50 [1] [nM] | β1 receptor % of Control Agonist Response [2] [%] | Emax [5] [%] | β2 receptor % of Control Agonist Response ([3]; 10 µM) [%] | α1 receptor % of Control Agonist Response, Control; Epinephrine ([4]; 10 µM) [%] | α1 receptor % of Control Agonist Response, Control; Norepinephrine ([4]; 10 µM) [%] | β2 receptor % of Control Agonist Response [3] [%] | α1 receptor % of Control Agonist Response, Control; Epinephrine [4] [%] | α1 receptor % of Control Agonist Response, Control; Norepinephrine [4] [%] | β3 receptor I.A. [1] [%] | α1A receptor I.A. ([5]; Test Case 4-A, maximum response of norepinephrine = 100%, Table 4) [%]
8 | Cc1n[nH]c2cc(OCCNC[C@H](O)c3cccc(NS(=O)(=O)c4cccnc4F)c3)ccc12 [ex86] | – | 401 | 8.8 | – | – | – | – | −0.7 | −0.4 | −0.3 | 80 | –
9 | Cc1n[nH]c2cc(OCCNC[C@H](O)c3cccc(NS(=O)(=O)c4cc(F)c(F)cc4F)c3)ccc12 [ex85, (R)-2,4,5-trifluoro-N-(3-(1-hydroxy-2-(2-(3-methylindazol-6-yloxy)ethylamino)ethyl)phenyl) benzenesulfonamide] | – | – | 30 | – | – | – | – | 1.0 | 0.1 | 0.1 | – | –
10 | COc1n[nH]c2cc(OCCNC[C@H](O)c3cccc(NS(=O)(=O)c4cn[nH]c4)c3)ccc12 [ex23, (R)-N-( ? -(1-hydroxy-2-(2-(3-methoxyindazol-6-yloxy)ethylamino)ethyl)phenyl)pyrazole-4-sulfonamide] | – | – | 2.1 | – | – | – | – | 0.5 | 32 | 27 | – | –
11 | (R)-N-(3-(2-(2-(3- ethylindazol-6- yloxy)ethylamino)-1- hydroxyethyl)phenyl)- ? -methyli ? zole-4- sulfonamide [ex134] | – | – | 7.0 | – | – | – | – | 2.0 | 7.0 | 6.0 | – | –
12 | Cc1n[nH]c2cc(OCCNC[C@H](O)c3cccc(NS(=O)(=O)c4c(F)cccc4F)c3)ccc12 [ex71, (R)-2,6-difluoro-N-(3-(1-hydroxy-2-(2-(3-methylindazol-6-yloxy)ethylamino)ethyl)phenyl) benzenesulfonamide] | – | 152 | 32 | – | – | – | – | 1.5 | 4.3 | 3.7 | 96 | 2
13 | Cc1n[nH]c2cc(OCCNC[C@H](O)c3cccc(NS(=O)(=O)c4ccc(F)c(N)c4)c3)ccc12 [ex58, (R)-3-amino-4-fluoro-N-(3-(1-hydroxy-2-(2-(3-methylindazol-6-yloxy)ethylamino)ethyl)phenyl) benzenesulfonamide] | – | – | 18 | – | – | – | – | 1.8 | 0.6 | 0.5 | – | –
